Test results from publication PMC8870237, “Improved Multimodal Tumor Necrosis Imaging with IRDye800CW-DOTA Conjugated to an Albumin-Binding Domain” (Cancers, 2022).

How the values were obtained:
4T1-Luc2 cells = experiment: In vitro dead/alive cell binding assay (fluorescence and γ-counting); type: cell-based, mouse; conditions: indium-111 labeled, 100 nM, 2.5 MBq/nmol, EtOH-killed or alive 4T1-Luc2 cells, γ-counting
Procedure: The 4T1-Luc2 cells were cultured in RPMI-1640 medium containing 10% fetal bovine, penicillin (100 U/mL), and streptomycin ([…]) 37 °C under a humidified atmosphere with 5% CO2. The cells were seeded in 24 well plates (1 × 10^5 cells per well). The next day, the cells were killed with EtOH (70%, 50 μL) or kept alive and incubated for 30 min at 37 °C with 100 nM of the NACAs in culturing medium. The plate was then imaged on an Odyssey (Li-Cor, 800 nm laser intensity 5.0).
Similarly, these killed and alive cells were incubated with the indium-111 labeled NACAs (100 nM, 2.5 MBq/nmol) in culturing medium. The cells were washed with PBS and collected with NaOH (1.0 M) for γ-counting. These experiments were performed as triplicates.

[1] = In vivo stability (radio-HPLC of urine 1 h after injection); set-up: species or system mouse; conditions: mice, i.v., 1 h p.i.
From the text: After an hour, the mice were sacrificed by cervical dislocation and blood and urine were collected, which were frozen in liquid nitrogen directly after extraction. […] The supernatant was collected and analyzed by radio-HPLC (Method-D).

4T1-Luc2 tumors = experiment: SPECT/CT tumor necrosis imaging, quantified tumor uptake; type: in vivo, mouse; conditions: 4T1-Luc2 tumor-bearing mice, 24 h p.i.
Procedure: The 4T1-Luc2 cells (1.0 × 10^5) suspended in 15 µL PBS were inoculated bilaterally in 16 mice in four groups of four animals each. Nine days later, the tumor-bearing mice were injected with [^111In]3 (20 MBq, 2 nmol, in 200 µL PBS) into the tail vein, after which imaging was performed at timepoints 6, 24, 48, and 72 h post-injection (p.i.) under isoflurane anesthesia (4% induction, 1.5 to 2% maintenance in 100% O2), whilst maintaining the body temperature constant. First, FLI imaging was performed with a 730 nm excitation and 760 nm emission filter for 400 ms with 4 × 4 binning. Then, the mice received an intraperitoneal injection of D-luciferin (150 mg/kg) maintaining the position of the mice in the bed unaltered, and BLI imaging was performed with an open filter for 400 ms with 4 × 4 binning. Full body (head to tail base) SPECT images of the 5 cm axial field of view were obtained over a total scan time of 30 min, followed by a 2 min full-body CT. After imaging, the mice were euthanized for ex vivo analysis.
Acquired SPECT and PET images were reconstructed using SR-OSEM with 9 iterations and 128 subsets on a 36 × 36 × 35 mm matrix with 0.80 mm isotropic voxels. For the PET images, a decay correction of 109.7 min was applied. The PET and SPECT images were superposed with CT. The images were further analyzed in Pi-Mod. […]

MCF7-Luc2 tumors = experiment: Tumor uptake in doxorubicin- or saline-treated MCF7-Luc2 tumor-bearing mice; type: in vivo, mouse; conditions: 24 h p.i., ±SEM
Procedure: (§1) The quadruple modality imaging procedure is illustrated in Figure S21. The tumor-bearing mice were injected with [^111In]3 (20 MBq, 2 nmol) in 200 µL PBS into the tail vein. The following day, the mice fasted for four hours before they were injected with [^18F]FDG (10 MBq, 200 µL) in PBS. At 24 h p.i. of [^111In]3 and 1 h p.i. of [^18F]FDG, FLI imaging was performed with a 730 nm excitation and 760 nm emission filter for 400 ms with 4 × 4 binning. Then, the mice received an intraperitoneal injection of D-luciferin (150 mg/kg) maintaining the position of the mice in the bed unaltered. During the onset of the bioluminescence signal, PET/SPECT imaging was performed of the tumors with a 2 cm axial field of view over a total scan time of 30 min, followed by a 2 min full-body CT. Finally, BLI imaging was performed with an open filter for 400 ms with 4 × 4 binning. Imaging was performed under isoflurane anesthesia whilst maintaining the body temperature constant.
Six mice were inoculated bilaterally with MCF7-Luc2 cells (3.0 × 10^6), suspended in 30 µL PBS:Matrigel (1:1; v/v). On days 14, 16, and 18 after inoculation, the tumor-bearing mice received either doxorubicin (5 mg/kg, Janssen Pharmaceuticals, Beerse, Belgium) or a saline solution via i.v. injection. On days 21 and 22 after inoculation, the mice underwent the FLI, BLI, and PET/SPECT/CT imaging procedure (vide supra).
(§2) After the final imaging experiments, the mice were sacrificed by cervical dislocation, tumors and organs were collected, weighted, and activity was accurately quantified by γ-counting to determine radioactivity uptake in the percentage of injected dose per gram (%ID/g). After γ-counting, the tumors were frozen in liquid nitrogen and stored at −80 °C overnight. Adjacent cryosections (10 µm) were prepared of the tumor centers for autoradiography. The sections were stored at −20 °C for the radioactivity to decay, before 800 nm fluorescence imaging and histochemical dead cell staining.

EMT6-Luc2 tumors = experiment: Tumor uptake in EMT6-Luc2 tumor-bearing mice; type: in vivo, mouse; conditions: untreated, 24 h p.i., ±SEM
Procedure: as §1, with “constant. […]” for “constant.”
as §2, with “After γ-counting, the tumors were frozen in liquid nitrogen and stored at −80 °C overnight. Adjacent cryosections (10 µm) were prepared of the tumor centers for autoradiography.” left out

## CC1(C)C(=CC=C2CCCC(C=CC3=[N+](CCCCCC(=O)NCCCC[C@H](NC(=O)CCCc4ccc(I)cc4)C(=O)NCc4ccc(CNC(=O)CN5CCN(CC(=O)[O-])CCN(CC(=O)[O-])CCN(CC(=O)[O-])CC5)cc4)c4ccc(S(=O)(=O)O)cc4C3(C)C)=C2Oc2ccc(S(=O)(=O)O)cc2)N(CCCCS(=O)(=O)O)c2ccc(S(=O)(=O)O)cc21.[111In+3] [[^111In]3]
4T1-Luc2 cells
  dead/alive cell binding, radioactivity: increased as compared to [^111In]1
[1]
  in vivo stability, remained stable: > 95%
4T1-Luc2 tumors
  radioactive tumor uptake in the SPECT images: 3.83 ± 0.19 %ID/mL
MCF7-Luc2 tumors; after doxorubicin treatment (5 mg/kg i.v., 3 injections)
  tumor uptake of [111In]3: 2.25 ± 0.16 %ID/g
MCF7-Luc2 tumors; after saline treatment (control)
  tumor uptake of [111In]3: 1.74 ± 0.08 %ID/g
EMT6-Luc2 tumors
  tumor uptake of [111In]3: 2.81 ± 0.21 %ID/g
